Test results published in PMC9030697, “Engineering and Structural Insights of a Novel BBI-like Protease Inhibitor Livisin from the Frog Skin Secretion” (Toxins, 2022).
In brackets after ≈: the same amount, converted by molar mass. Like-named read-outs stand apart in the source and are kept apart here.

Tests used:
bovine trypsin = biological target: T1, bovine trypsin (Bos taurus, UniProt P00760); experiment: Kinetic assay for the inhibition constant (Ki), trypsin; format: biochemical
T1 construct: purchased Sigma-Aldrich
T1 sequence (P00760 24-246): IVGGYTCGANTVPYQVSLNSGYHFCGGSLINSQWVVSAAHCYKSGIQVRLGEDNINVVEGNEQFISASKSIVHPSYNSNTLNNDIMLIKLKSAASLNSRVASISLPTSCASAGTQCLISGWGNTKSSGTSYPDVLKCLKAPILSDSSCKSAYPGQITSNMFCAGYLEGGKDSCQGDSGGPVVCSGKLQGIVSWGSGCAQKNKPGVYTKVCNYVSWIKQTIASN
Experimental: (§1) The inhibitory activities against these proteases were tested at a peptide concentration ranging from 0.1 μM to 100 μM.
(§2) (a) Bovine trypsin; (b) matriptase; (c) chymotrypsin; (d) mesotrypsin; (e) human proteasome 20s. The activity of each protease was assayed in the presence of each peptide ranging from 0.1 μM to 100 μM in PBS (pH 7.4) and the corresponding substrate: Z-Gly-Gly-Arg-NHMec (trypsin); Suc-Ala-Ala-Pro-Phe-NHMec (chymotrypsin); Boc-Gln-Ala-Arg-AMC (matriptase); Mca-Arg-Pro-Val-Glu-Nval-Trp-Arg-Lys(Dnp)-NH2 (mesotrypsin); Suc-Leu-Leu-Val-Tyr-AMC (human proteasome 20s).
(§3) Kinetic assays for the inhibition constant (Ki). […] Inhibitory activities against the proteases of the peptides were tested using previously published papers and manufacturers’ instructions from 0.1 μM to 100 μM in PBS (pH 7.4). Wells of a black microtiter plate were loaded with designed different concentrations of peptide solution. […] For the human proteasome 20s, florescent was read after 15 min pre-incubation. The fluorescent products’ formation rate was measured continuously at 37 °C in the kinetic model using a multi-detection microplate reader (BMG Labtech, Ortenberg, Germany). […] Assays were repeated individually three times, and the Ki was calculated by non-linear regression (Morrison equation) using GraphPad Prism.

human matriptase-1 = biological target: T2, human matriptase-1 (Homo sapiens, UniProt Q9Y5Y6); experiment: Kinetic assay for the inhibition constant (Ki), matriptase; format: biochemical
T2 construct: purchased R&D systems
T2 sequence (Q9Y5Y6 1-855): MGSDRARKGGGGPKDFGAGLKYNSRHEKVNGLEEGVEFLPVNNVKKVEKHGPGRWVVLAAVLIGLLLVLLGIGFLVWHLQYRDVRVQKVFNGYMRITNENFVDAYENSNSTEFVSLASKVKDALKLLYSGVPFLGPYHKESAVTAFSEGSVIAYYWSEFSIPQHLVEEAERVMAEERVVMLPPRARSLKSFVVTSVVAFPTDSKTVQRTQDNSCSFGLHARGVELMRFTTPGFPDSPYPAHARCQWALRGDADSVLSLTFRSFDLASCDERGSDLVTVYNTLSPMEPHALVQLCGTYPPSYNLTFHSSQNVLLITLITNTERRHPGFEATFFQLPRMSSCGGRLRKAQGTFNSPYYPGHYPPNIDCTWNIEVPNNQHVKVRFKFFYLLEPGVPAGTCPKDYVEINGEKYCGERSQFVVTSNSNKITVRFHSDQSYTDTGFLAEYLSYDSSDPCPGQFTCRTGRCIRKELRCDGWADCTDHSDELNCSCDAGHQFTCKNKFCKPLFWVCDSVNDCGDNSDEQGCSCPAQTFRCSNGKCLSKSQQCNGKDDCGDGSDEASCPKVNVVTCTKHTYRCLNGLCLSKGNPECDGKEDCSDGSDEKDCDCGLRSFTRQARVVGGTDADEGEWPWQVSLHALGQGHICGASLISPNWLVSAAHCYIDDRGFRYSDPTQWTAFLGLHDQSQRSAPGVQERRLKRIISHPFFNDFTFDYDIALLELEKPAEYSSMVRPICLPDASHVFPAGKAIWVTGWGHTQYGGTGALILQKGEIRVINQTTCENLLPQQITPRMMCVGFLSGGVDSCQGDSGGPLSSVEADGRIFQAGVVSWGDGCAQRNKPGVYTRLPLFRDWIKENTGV
Experimental: as §1, §2, §3

chymotrypsin = chymotrypsin (Bos taurus, UniProt P00766); experiment: biochemical
Experimental: as §1, §2, §3

mesotrypsin = biological target: T3, mesotrypsin (Homo sapiens, UniProt P35030); experiment: Kinetic assay for the inhibition constant (Ki), mesotrypsin; format: biochemical
T3 construct: purchased R&D systems
T3 sequence (P35030 1-304): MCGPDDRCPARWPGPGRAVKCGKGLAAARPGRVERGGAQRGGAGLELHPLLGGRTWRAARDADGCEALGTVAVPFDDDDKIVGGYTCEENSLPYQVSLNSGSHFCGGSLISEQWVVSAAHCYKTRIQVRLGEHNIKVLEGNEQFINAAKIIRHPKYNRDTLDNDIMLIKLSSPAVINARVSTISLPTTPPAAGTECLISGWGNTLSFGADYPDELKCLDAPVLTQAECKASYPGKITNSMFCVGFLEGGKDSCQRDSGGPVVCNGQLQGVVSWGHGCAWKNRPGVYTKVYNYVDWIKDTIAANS
Experimental: as §1, §2, §3

human proteasome 20s = biological target: T4, human proteasome 20s (Homo sapiens, UniProt P28074); experiment: Kinetic assay for the inhibition constant (Ki), 20s proteasome; format: biochemical
T4 construct: purchased Biochem, Boston, MA, USA
Experimental: as §1, §2, §3

[1] = tested on: Candida albicans (NCPF 1467)
Experimental: (§4) The antimicrobial activities of the five peptides were assessed by determining their minimal inhibitory concentrations (MICs) against three standard microorganisms, the Gram-positive bacterium Staphylococcus aureus (NCTC 10788) and the Gram-negative bacterium Escherichia coli (NCTC 10418), and the opportunistic pathogen yeast Candida albicans (NCPF 1467).
(§5) Minimal inhibitory concentration assay. Antimicrobial activities of the peptides were monitored by determining their minimal inhibitory concentrations (MICs) using three standard microorganisms, which were Gram-positive bacterium Staphylococcus aureus (NCTC 10788), Gram-negative bacterium Escherichia coli (NCTC 10418), and opportunistic pathogen yeast Candida albicans (NCPF 1467). The peptides were dissolved in physiological PBS, two-fold diluted to obtain a series of concentrations, and added into wells of 96-well microtiter plates. The respective concentrations of peptides and controls were incubated with microorganism cultures (5 × 10^5 colony-forming units/mL) for 18 h at 37 °C in a humidified atmosphere. Then, the growth of microorganisms was detected by measuring optical density at λ = 550 nm using an absorbance reader (BioTek Instruments, Winooski, VT, USA). MIC was defined as the minimum concentration of peptide at which no growth was detectable.

[2] = tested on: Escherichia coli (NCTC 10418)
Experimental: as §4, §5

[3] = tested on: Staphylococcus aureus (NCTC 10788)
Experimental: as §4, §5

[4] = two-fold dilutions in PBS, 5 × 10^5 CFU/mL, 18 h at 37 °C, OD 550 nm, highest concentration 512 μg/mL

Structure (SMILES) | Ki (bovine trypsin) [µM] | Ki (human matriptase-1; human matriptase, peptide 0.1-100 μM in PBS pH 7.4, substrate Boc-Gln-Ala-Arg-AMC 20 μM, 37 °C, continuous fluorescence, Morrison equation, three independent experiments, each in duplicate, NI = no inhibition, read-out: Ki Matriptase) [µM] | Ki (chymotrypsin) [µM] | Ki (mesotrypsin; peptide 0.1-100 μM in PBS pH 7.4, substrate Mca-Arg-Pro-Val-Glu-Nval-Trp-Arg-Lys(Dnp)-NH2 20 μM, 37 °C, continuous fluorescence, Morrison equation, three independent experiments, each in duplicate, NI = no inhibition, read-out: Ki Mesotrypsin) [µM] | Ki (human proteasome 20s; peptide 0.1-100 μM in PBS pH 7.4, substrate Suc-Leu-Leu-Val-Tyr-AMC 20 μM, 15 min pre-incubation, 37 °C, fluorescence, Morrison equation, three independent experiments, each in duplicate, NI = no inhibition, read-out: Ki 20s Proteasome) [µM] | MIC C. albicans (NCPF 1467) ([1]; NCPF 1467, 18 h) [µg/mL] | MIC E. coli (NCTC 10418) ([2]; NCTC 10418, 18 h) [µg/mL] | MIC S. aureus (NCTC 10788) ([3]; NCTC 10788, 18 h) [µg/mL] | Ki (bovine trypsin; bovine trypsin, peptide 0.1-100 μM in PBS pH 7.4, substrate Z-Gly-Gly-Arg-NHMec 45 μM, 37 °C, continuous fluorescence, Morrison equation, three independent experiments, each in duplicate, NI = no inhibition, read-out: Ki Trypsin) [µM] | Ki (human matriptase-1) [µM] | Ki (mesotrypsin) [µM] | Ki (human proteasome 20s; read-out: Ki 20s Proteasome, peptide 0.1-100 μM in PBS pH 7.4, substrate Suc-Leu-Leu-Val-Tyr-AMC 20 μM, 15 min pre-incubation, 37 °C, fluorescence, Morrison equation, three independent experiments, each in duplicate, NI = no inhibition) [µM] | MIC C. albicans, given in μM ([1]; same MIC as 256 μg/mL, printed in molar unit, 18 h at 37 °C, OD 550 nm) [µM] | MIC C. albicans (NCPF 1467) [1, 4] [µg/mL] | MIC E. coli (NCTC 10418) [2, 4] [µg/mL] | MIC S. aureus (NCTC 10788) [3, 4] [µg/mL]
CC(C)C[C@H](NC(=O)[C@@H]1CSSC[C@H](NC(=O)CNC(=O)[C@H](CCCNC(=N)N)NC(=O)[C@H](CC(C)C)NC(=O)[C@H](Cc2ccccc2)NC(=O)CN)C(=O)N[C@@H](Cc2c[nH]c3ccccc23)C(=O)N[C@@H]([C@@H](C)O)C(=O)N[C@@H](CCCNC(=N)N)C(=O)N[C@@H](CO)C(=O)N[C@@H](Cc2ccccc2)C(=O)N2CCC[C@H]2C(=O)N2CCC[C@H]2C(=O)N[C@@H](CCCCN)C(=O)N2CCC[C@H]2C(=O)N1)C(=O)O [livisin-Arg] | 1.02 | 46.9 | 74.7 | 32.1 | > 100 | >512 | >512 | >512 | – | – | – | – | – | – | – | –
CC(C)C[C@H](NC(=O)[C@@H]1CSSC[C@H](NC(=O)CNC(=O)[C@H](CCCNC(=N)N)NC(=O)[C@H](CC(C)C)NC(=O)[C@H](Cc2ccccc2)NC(=O)CN)C(=O)N[C@@H](Cc2c[nH]c3ccccc23)C(=O)N[C@@H]([C@@H](C)O)C(=O)N[C@@H](CCCCN)C(=O)N[C@@H](CO)C(=O)N[C@@H](Cc2ccccc2)C(=O)N2CCC[C@H]2C(=O)N2CCC[C@H]2C(=O)N[C@@H](CCCCN)C(=O)N2CCC[C@H]2C(=O)N1)C(N)=O [livisin-NH2] | – | – | 144 | – | – | – | – | – | 0.424 | 2.36 | 18.6 | > 100 | 132 (≈ 255 µg/mL) | 256 (≈ 132 µM) | >512 | >512
